Experimental data reported in US20070203183A1, “Diaryl piperidines as CB1 modulators” (Schering Corporation, priority 2006, published 2007).
Read-outs that look alike come from different tables or passages of the source.

Molecular target: T1, cannabinoid CB1 (Homo sapiens, UniProt P21554)
T1 construct: purchased
Test: Competition binding assay for cannabinoid CB1 affinity (3H-CP55,940 displacement, membranes)
Procedure: Method for Evaluating Cannabinoid CB1 and CB2 Affinity
Non-specific binding was defined in the presence of 10 μM CP55,940. For saturation studies, concentrations of ^3H-CP55,940 ranging from 0.1-5 nM were incubated with membranes in the presence and absence of 10 μM CP55,940. Assays were terminated after incubation for 1½ hours by rapid filtration onto 0.3% polyethylenamine treated GF/C filterplates using a BRANDEL cell harvester. The plates were dried and MICROSCINT scintillation cocktail was added, after which the bound radioactivity was quantified using a TOPCOUNT scintillation counter.
The dissociation constant (Kd) of ^3H-CP55,940 at the CB1 and CB2 receptor were determined by plotting specific binding at each concentration of radioligand, and analysis by non-linear regression. For competition studies, the concentration of each drug that inhibited 50 percent of ^3H-CP55,940 binding (IC50) was determined by non-linear regression analysis of the radioligand displacement curves.

[1] = competition with 0.5 nM 3H-CP55,940, Ki by Cheng-Prusoff, approximate values, receptor subtype not given, read-out: Ki values

T1 sequence (P21554 whole entry): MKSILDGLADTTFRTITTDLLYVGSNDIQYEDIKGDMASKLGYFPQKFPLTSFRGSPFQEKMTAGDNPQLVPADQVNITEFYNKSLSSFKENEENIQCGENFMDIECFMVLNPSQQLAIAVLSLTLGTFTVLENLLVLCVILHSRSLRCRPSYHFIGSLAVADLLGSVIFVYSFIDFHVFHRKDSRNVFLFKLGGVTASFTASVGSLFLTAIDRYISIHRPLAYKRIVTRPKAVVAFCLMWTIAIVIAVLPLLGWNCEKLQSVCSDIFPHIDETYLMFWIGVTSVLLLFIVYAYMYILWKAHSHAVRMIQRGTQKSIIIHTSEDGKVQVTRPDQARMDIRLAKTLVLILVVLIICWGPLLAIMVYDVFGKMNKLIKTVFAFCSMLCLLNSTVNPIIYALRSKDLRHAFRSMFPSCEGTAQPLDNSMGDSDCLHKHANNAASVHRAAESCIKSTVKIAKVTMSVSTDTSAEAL

Ki [1] [nM] | SMILES | Ki [nM]
~9 | O=S(=O)(NC[C@@H]1CC[C@@H](c2ccc(Cl)cc2Cl)N(c2ccc(Cl)cc2)C1)c1ccccc1 [Example 86] | 
~2 | O=S(=O)(NC[C@@H]1CC[C@@H](c2ccc(Cl)cc2Cl)N(c2ccc(Cl)cc2)C1)c1cccc(Cl)c1 [Example 120] | 
 | N#Cc1ccc(C(=O)NC[C@@H]2CC[C@@H](c3ccc(Cl)cc3Cl)N(c3ccc(Cl)cc3)C2)cc1 [Example 91] | ~4
~2 | O=S(=O)(NC[C@@H]1CC[C@@H](c2ccc(Cl)cc2Cl)N(c2ccc(Cl)cc2)C1)c1cc(F)ccc1F [Example 112] | 
